In patent US20170334927A1 (Shanghai Sun-sail Pharmaceutical Science & Technology Co., …, priority 2014, published 2017):
Values after ≈ are worked out from the molar mass of the structure shown.

Columns and labels:
physchem = type: physicochemical; conditions: for solubility at 3 days: pH 1.2, simulated gastric fluid, thermodynamic from solid
Procedure: 3-5 mg of compound to be tested was added to 0.5 mL of aqueous HCl solution (pH=1.2) and the mixture was shaken for three days on a shaker; the sample was centrifuged for 5 min at 10,000 rpm in a centrifuge; a volumetric flask (50 mL) was loaded with 2 mL of supernatant and water was added to a volume at the graduation mark to prepare a sample solution; and 2.6 mg of sample was precisely weighed into a volumetric flask (50 mL), an appropriate amount of methanol was added to dissolve the sample, and water was added to a volume at the graduation mark and shaken well to give a control sample solution. 20 μL of sample solution and control sample solution were each injected, and tested by liquid chromatography. The solubility was calculated as follows:
Solubility (mg/mL)=C (control)*25*A (sample)/A (control)
C (control): concentration of the control sample
A (sample): peak area of the liquid chromatogram of the sample solution
A (control): peak area of the liquid chromatogram of the control sample solution

[1] = Drug metabolism test (pharmacokinetics, oral, mice); type: in vivo, ICR mice; conditions: 10 mg/kg; for AUC(0-inf) / AUC(0-t) / Cmax / MRT / Tmax / half-life: male, ICR, mouse, po, orally (intragastric), plasma; for pharmacokinetic properties (in words): orally, judgement on Table 6
Procedure: 18 healthy male ICR mice with a body weight of 18-22 g were administered drugs by intragastric administration, with an administration dose of 10 mg/kg and an administration volume of 10 mL/kg, respectively. These mice were fasted for 12 h before the test and had free access to drinking water. These mice were fed 2 h after administration uniformly. 0.3 mL of blood was taken from the postocular venous plexus of a mouse at the set time points, placed in a heparinized test tube and centrifuged for 10 min at 3000 rpm; and plasma was separated and frozen in a refrigerator at −20° C. When measured, the sample was treated through the method for treating the plasma sample, and the drug concentration in plasma was determined by LC-MS/MS and the pharmacokinetic parameters of the drug were calculated.

[2] = system: Mycobacterium tuberculosis H37Rv; assay: Activity test for Mycobacterium tuberculosis (MIC, H37Rv); type: cell-based; conditions: for anti Mycobacterium tuberculosis activity (MIC against H37Rv), times of that of PA-824: relative to PA-824; for anti Mycobacterium tuberculosis activity (MIC against H37Rv), times of that of ethambutol: relative to ethambutol; for MIC: Mycobacterium tuberculosis H37Rv, liquid medium, 37° C., read-out: Minimum inhibitory concentration against H37Rv
Procedure: The tested strain H37Rv was transferred to liquid medium and cultured for 2 weeks at 37° C.; a small amount of the cultured bacterial solution was pipetted and placed in 4 mL of liquid medium; 10-20 sterile glass beads with a diameter of 2-3 mm were added; the mixture was shaken for 20-30 s and left to sediment for 10-20 min; the supernatant of the bacterial suspension was pipetted and adjusted to a turbidity of 1 MCF (equivalent to 1×10^7 CFU/mL) with the liquid medium for use. Each drug was dissolved to 1 mg/mL with an appropriate amount of DMSO and filtered with a 0.22 μm filter. Then, the solution was diluted to a desired experimental concentration with the liquid medium. The final concentrations of the tested drugs were set as follows: 0.001 μg/mL, 0.002 μg/mL, 0.0039 μg/mL, 0.0078 μg/mL, […], 0.03125 μg/mL, 0.0625 μg/mL, 0.125 μg/mL, 0.25 μg/mL, 0.5 μg/mL and 1 μg/mL, a total of 11 concentration gradients. 100 μL of each of the above-mentioned drug solutions was added to a 96-well microwell plate, then 100 μL bacterial solution with a concentration of 1 mg/mL was added to allow the drug concentration to reach the final set concentration, and cultured at 37° C. Three groups in parallel were set for each drug dilution with inoculation amounts of 100%, 10% and 1%, respectively, while no drug was added to the control group.

O=[N+]([O-])c1cn2c(n1)OC[C@@H](NCc1ccc(N3CCC(Oc4ccc(OC(F)(F)F)cc4)CC3)nc1)C2 [Compound 1, (S)-2-nitro-N-((6-(4-(4-(trifluoromethoxy)phenoxy)piperidin-1-yl)pyrid-3-yl)methyl)-6,7-dihydro-5H-imidazo[2,1-b][1,3]oxazin-6-amine]
solubility at 3 days (physchem): 784 µg/mL (≈ 1470 µM) | AUC(0-inf) [1]: 32300 ng·h/mL | AUC(0-t) [1]: 31300 ng·h/mL | Cmax [1]: 2670 ng/mL | MRT [1]: 6.64 h | Tmax [1]: 2.33 h | half-life [1]: 4.76 h | pharmacokinetic properties (in words) [1]: excellent | anti Mycobacterium tuberculosis activity (MIC against H37Rv), times of that of PA-824 [2]: 8 times | anti Mycobacterium tuberculosis activity (MIC against H37Rv), times of that of ethambutol [2]: 64 times | MIC [2]: 0.0078 µg/mL (≈ 0.0146 µM)

O=[N+]([O-])c1cn2c(n1)OC[C@@H](NCc1ccc(N3CCC(Oc4ccc(OC(F)(F)F)cc4)C(F)C3)nc1)C2 (stereo partly drawn) [Compound 3, (6S)—N-((6-(3-fluoro-4-(4-(trifluoromethoxy)phenoxy)piperidin-1-yl)pyrid-3-yl)methyl)-2-nitro-6,7-dihydro-5H-imidazo[2,1-b][1,3]oxazin-6-amine]
MIC [2]: 0.0156 µg/mL (≈ 0.0282 µM)

O=[N+]([O-])c1cn2c(n1)OC[C@@H](NCc1ccc(N3CCN(c4ccc(OC(F)(F)F)cc4)CC3)nc1)C2 [Compound 4, (S)-2-nitro-N-((6-(4-(4-(trifluoromethoxy)phenyl)piperazin-1-yl)pyrid-3-yl)methyl)-6,7-dihydro-5H-imidazo[2,1-b][1,3]oxazin-6-amine]
Solubility (physchem; 3 days, pH 1.2): 1257.2 µg/mL (≈ 2420 µM) | solubility at 3 days (physchem): > 1000 µg/mL | AUC(0-inf) [1]: 17300 ng·h/mL | AUC(0-t) [1]: 17200 ng·h/mL | Cmax [1]: 1780 ng/mL | MRT [1]: 5.56 h | Tmax [1]: 2 h | half-life [1]: 3.38 h | anti Mycobacterium tuberculosis activity (MIC against H37Rv), times of that of PA-824 [2]: 32 times | anti Mycobacterium tuberculosis activity (MIC against H37Rv), times of that of ethambutol [2]: 256 times | MIC [2]: 0.00195 µg/mL (≈ 0.00375 µM)

CC1CN(c2ccc(CN[C@@H]3COc4nc([N+](=O)[O-])cn4C3)cn2)CCN1c1ccc(OC(F)(F)F)cc1 (stereo partly drawn) [Compound 5, (3S)—N-((6-(3-methyl-4-(4-(trifluoromethoxy)phenyl)piperazin-1-yl)pyrid-3-yl)methyl)-7-nitro-3,4-dihydro-2H-imidazo[2,1-b][1,3]oxazin-3-amine]
anti Mycobacterium tuberculosis activity (MIC against H37Rv), times of that of PA-824 [2]: 16 times | anti Mycobacterium tuberculosis activity (MIC against H37Rv), times of that of ethambutol [2]: 128 times | MIC [2]: 0.0039 µg/mL (≈ 0.00731 µM)

CC1CN(c2ccc(OC(F)(F)F)cc2)CCN1c1ccc(CN[C@@H]2COc3nc([N+](=O)[O-])cn3C2)cn1 (stereo partly drawn) [Compound 6, (3S)—N-((6-(2-methyl-4-(4-(trifluoromethoxy)phenyl)piperazin-1-yl)pyrid-3-yl)methyl)-7-nitro-3,4-dihydro-2H-imidazo[2,1-b][1,3]oxazin-3-amine]
anti Mycobacterium tuberculosis activity (MIC against H37Rv), times of that of PA-824 [2]: 32 times | anti Mycobacterium tuberculosis activity (MIC against H37Rv), times of that of ethambutol [2]: 256 times | MIC [2]: 0.00195 µg/mL (≈ 0.00366 µM)

N#CC1(c2ccc(OC(F)(F)F)cc2)CCN(c2ccc(CN[C@@H]3COc4nc([N+](=O)[O-])cn4C3)cn2)CC1 [Compound 10, (S)-1-(5-(((7-nitro-3,4-dihydro-2H-imidazo[2,1-b][1,3]oxazin-3-yl)amino)methyl)pyridin-2-yl)-4-(4-(trifluoromethoxy)phenyl)piperidine-4-carbonitrile]
solubility at 3 days (physchem): 522 µg/mL (≈ 960 µM) | AUC(0-inf) [1]: 28800 ng·h/mL | AUC(0-t) [1]: 28800 ng·h/mL | Cmax [1]: 2030 ng/mL | MRT [1]: 4.68 h | Tmax [1]: 2.18 h | half-life [1]: 3.35 h | pharmacokinetic properties (in words) [1]: excellent | anti Mycobacterium tuberculosis activity (MIC against H37Rv), times of that of PA-824 [2]: 32 times | anti Mycobacterium tuberculosis activity (MIC against H37Rv), times of that of ethambutol [2]: 256 times | MIC [2]: 0.00195 µg/mL (≈ 0.00359 µM)

O=[N+]([O-])c1cn2c(n1)OC[C@@H](NCc1ccc(N3CC4CN(c5ccc(OC(F)(F)F)cc5)CC4C3)nc1)C2 (stereo partly drawn) [Compound 11, (6S)-2-nitro-N-((6-(5-(4-(trifluoromethoxy)phenyl)hexahydropyrrolo[3,4-c]pyrrol-2(1H)-yl)pyrid-3-yl)methyl)-6,7-dihydro-5H-imidazo[2,1-b][1,3]oxazin-6-amine]
MIC [2]: 0.0312 µg/mL (≈ 0.0573 µM)

O=[N+]([O-])c1cn2c(n1)OC[C@@H](NCc1ccc(N3CCC4(CC3)CN(c3ccc(OC(F)(F)F)cc3)C4)nc1)C2 [Compound 13, (S)-2-nitro-N-((6-(2-(4-(trifluoromethoxy)phenyl)-2,7-diazaspiro[3.5]nonan-7-yl)pyrid-3-yl)methyl)-6,7-dihydro-5H-imidazo[2,1-b][1,3]oxazin-6-amine]
MIC [2]: 0.0156 µg/mL (≈ 0.0279 µM)

O=[N+]([O-])c1cn2c(n1)OC[C@@H](NCc1ccc(N3C4CCC3CC(Oc3ccc(OC(F)(F)F)cc3)C4)nc1)C2 (stereo partly drawn) [Compound 14, (6S)-2-nitro-N-((6-(3-(4-(trifluoromethoxy)phenoxy)-8-azabicyclo[3.2.1]octan-8-yl)pyrid-3-yl)methyl)-6,7-dihydro-5H-imidazo[2,1-b][1,3]oxazin-6-amine]
anti Mycobacterium tuberculosis activity (MIC against H37Rv), times of that of PA-824 [2]: 8 times | anti Mycobacterium tuberculosis activity (MIC against H37Rv), times of that of ethambutol [2]: 64 times | MIC [2]: 0.0078 µg/mL (≈ 0.0139 µM)

O=[N+]([O-])c1cn2c(n1)OC[C@@H](NCc1cnc(N3CCC(Oc4ccc(OC(F)(F)F)cc4)CC3)nc1)C2 [Compound 15]
MIC [2]: 0.0312 µg/mL (≈ 0.0584 µM)

O=[N+]([O-])c1cn2c(n1)OC[C@@H](NCc1cnc(N3CC4CN(c5ccc(OC(F)(F)F)cc5)CC4C3)nc1)C2 (stereo partly drawn) [Compound 25]
MIC [2]: 0.0156 µg/mL (≈ 0.0285 µM)

O=[N+]([O-])c1cn2c(n1)OC[C@@H](NCc1cnc(N3C4CCC3CC(Oc3ccc(OC(F)(F)F)cc3)C4)nc1)C2 (stereo partly drawn) [Compound 28]
MIC [2]: 0.0156 µg/mL (≈ 0.0278 µM)

COc1nc(N2CCN(c3ccc(OC(F)(F)F)cc3)CC2)ncc1CN[C@@H]1COc2nc([N+](=O)[O-])cn2C1 [Compound 38, (S)—N-((4-methoxy-2-(4-(4-(trifluoromethoxy)phenyl)piperazin-1-yl)pyrimidin-5-yl)methyl)-2-nitro-6,7-dihydro-5H-imidazo[2,1-b][1,3]oxazin-6-amine]
MIC [2]: 0.0156 µg/mL (≈ 0.0283 µM)

N#Cc1nc(N2CCN(c3ccc(OC(F)(F)F)cc3)CC2)ncc1CN[C@@H]1COc2nc([N+](=O)[O-])cn2C1 [Compound 40, (S)-5-(((2-nitro-6,7-dihydro-5H-imidazo[2,1-b][1,3]oxazin-6-yl)amino)methyl)-2-(4-(4-(trifluoromethoxy)phenyl)piperazin-1-yl)pyrimidine-4-carbonitrile]
anti Mycobacterium tuberculosis activity (MIC against H37Rv), times of that of PA-824 [2]: 8 times | anti Mycobacterium tuberculosis activity (MIC against H37Rv), times of that of ethambutol [2]: 64 times | MIC [2]: 0.0078 µg/mL (≈ 0.0143 µM)

O=[N+]([O-])c1cn2c(n1)OC[C@@H](NCc1cnc(N3CCN(c4ccc(OC(F)(F)F)cc4)CC3)nc1C(F)(F)F)C2 [Compound 41, (S)-2-nitro-N-((2-(4-(4-(trifluoromethoxy)phenyl)piperazin-1-yl)-4-(trifluoromethyl)pyrimidin-5-yl)methyl)-6,7-dihydro-5H-imidazo[2,1-b][1,3]oxazin-6-amine]
MIC [2]: 0.0312 µg/mL (≈ 0.0531 µM)

CN(Cc1cnc(N2CCN(c3ccc(OC(F)(F)F)cc3)CC2)nc1)[C@@H]1COc2nc([N+](=O)[O-])cn2C1 [Compound 44, (S)—N-methyl-2-nitro-N-((2-(4-(4-(trifluoromethoxy)phenyl)piperazin-1-yl)pyrimidin-5-yl)methyl)-6,7-dihydro-5H-imidazo[2,1-b][1,3]oxazin-6-amine]
anti Mycobacterium tuberculosis activity (MIC against H37Rv), times of that of PA-824 [2]: 32 times | anti Mycobacterium tuberculosis activity (MIC against H37Rv), times of that of ethambutol [2]: 256 times | MIC [2]: 0.00195 µg/mL (≈ 0.00365 µM)

CC[C@@H](CO)NCCN[C@@H](CC)CO [Ethambutol, reference compound]
MIC [2]: 0.5 µg/mL (≈ 2.45 µM)
